Results: patent US10780090B2, “Heteroaryl compounds useful as inhibitors of SUMO activating enzyme” (Millennium Pharmaceuticals, Inc., priority 2014, dated 2020)
Where two headings read alike, the source gives them in different places.

Molecular target: recombinant human SAE enzyme (Homo sapiens (Human), UniProt Q9UBT2)
Assay: SAE HTRF enzyme assay
Format: biochemical
Conditions: for inhibition at 0.111 µM: read-out: Percent Inhibition
Outline: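 0.11 nM SAE incubated with 0.5 μM ATP, 0.01 μM Ubc9-GST and 0.125 μM Sumo-Flag in HEPES pH 7.5, MgCl2, GSH, BSA, ±inhibitor, 105 min at 24° C. EDTA stop; Eu-cryptate anti-Flag/XL-APC anti-GST HTRF read after 2 h. Values given as single-concentration % inhibition or IC50.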

[1] = SAE inhibition at compound concentration 0.111 μM
[2] = SAE inhibition, class symbols, legend in nM

recombinant human SAE enzyme, sequence (Q9UBT2 whole entry): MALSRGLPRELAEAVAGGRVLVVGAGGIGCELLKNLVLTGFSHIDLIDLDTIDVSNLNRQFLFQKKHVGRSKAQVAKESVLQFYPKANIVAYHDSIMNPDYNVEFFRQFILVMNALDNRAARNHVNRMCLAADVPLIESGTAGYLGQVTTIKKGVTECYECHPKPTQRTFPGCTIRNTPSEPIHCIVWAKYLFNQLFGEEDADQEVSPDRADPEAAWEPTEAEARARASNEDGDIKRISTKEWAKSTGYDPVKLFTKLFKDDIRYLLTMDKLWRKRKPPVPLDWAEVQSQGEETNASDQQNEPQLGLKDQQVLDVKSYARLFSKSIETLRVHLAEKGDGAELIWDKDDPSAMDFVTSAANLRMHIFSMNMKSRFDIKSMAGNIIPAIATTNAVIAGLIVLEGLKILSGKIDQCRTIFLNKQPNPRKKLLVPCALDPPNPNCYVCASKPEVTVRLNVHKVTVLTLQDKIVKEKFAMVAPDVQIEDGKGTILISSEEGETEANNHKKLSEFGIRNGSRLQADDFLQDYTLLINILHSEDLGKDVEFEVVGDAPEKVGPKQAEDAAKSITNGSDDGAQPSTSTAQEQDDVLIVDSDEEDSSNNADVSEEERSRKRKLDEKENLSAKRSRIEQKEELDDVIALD
recombinant human SAE enzyme, sequence (Q9UBE0 whole entry partner): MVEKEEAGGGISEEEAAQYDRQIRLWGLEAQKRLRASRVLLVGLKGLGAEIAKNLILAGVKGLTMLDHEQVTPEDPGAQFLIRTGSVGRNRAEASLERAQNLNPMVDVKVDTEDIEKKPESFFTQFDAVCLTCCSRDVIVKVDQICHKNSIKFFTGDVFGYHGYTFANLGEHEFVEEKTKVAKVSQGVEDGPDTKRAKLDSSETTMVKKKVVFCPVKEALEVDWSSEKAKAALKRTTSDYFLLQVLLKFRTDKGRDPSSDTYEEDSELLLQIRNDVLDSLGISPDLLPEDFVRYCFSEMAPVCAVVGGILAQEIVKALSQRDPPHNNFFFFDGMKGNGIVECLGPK

Structure (SMILES)	Percent Inhibition (Concentration 0.111 μM)	IC50 (class symbols A/B/C) [nM]	inhibition at 0.111 µM (Concentration 0.111 μM) [%]	also measured
Cc1sc(C(=O)c2cncnc2N[C@@H]2C[C@H](COS(N)(=O)=O)[C@@H](O)C2)cc1[C@@H]1OCCc2ccc(C(F)(F)F)cc21 (single isomer, unassigned) [I-258a, [(1R,2S,4R)-2-hydroxy-4-{[5-({5-methyl-4-[(1R)-7-(trifluoromethyl)-3,4-dihydro-1H-isochromen-1-yl]-2-thienyl}carbonyl)pyrimidin-4-yl]amino}cyclopentyl]methyl sulfamate or [(1R,2S,4R)-2-hydroxy-4-{[5-({5-methyl-4-[(1S)-7-(trifluoromethyl)-3,4-dihydro-1H-isochromen-1-yl]-2-thienyl}carbonyl)pyrimidin-4-yl]amino}cyclopentyl]methyl sulfamate]	98	< 10	–	–
Cc1sc(C(=O)c2cncnc2NC2CC(O)C(COS(N)(=O)=O)C2)cc1C(O)c1cccc(Cl)c1 (mixture of isomers) [I-11, [(1R,2S,4R)-4-{[5-({4-[(R)-(3-chlorophenyl)(hydroxy)methyl]-5-methyl-2-thienyl}carbonyl)pyrimidin-4-yl]amino}-2-hydroxycyclopentyl]methyl sulfamate and [(1R,2S,4R)-4-{[5-({4-[(S)-(3-chlorophenyl)(hydroxy)methyl]-5-methyl-2-thienyl}carbonyl)pyrimidin-4-yl]amino}-2-hydroxycyclopentyl]methyl sulfamate]	99	< 10	–	–
NS(=O)(=O)OC[C@H]1C[C@@H](Nc2ncncc2C(=O)c2cc(COc3ccccc3Br)cs2)C[C@@H]1O [I-98, [(1R,2S,4R)-4-{[5-({4-[(2-bromophenoxy)methyl]-2-thienyl}carbonyl)pyrimidin-4-yl]amino}-2-hydroxycyclopentyl]methyl sulfamate]	–	< 10	97	–
NC(c1cccc(Cl)n1)c1cc(C(=O)c2cncnc2NC2CC(O)C(COS(N)(=O)=O)C2)sc1Cl (mixture of isomers) [I-25, [(1R,2S,4R)-4-{[5-({4-[(S)-amino(6-chloropyridin-2-yl)methyl]-5-chloro-2-thienyl}carbonyl)pyrimidin-4-yl]amino}-2-hydroxycyclopentyl]methyl sulfamate and [(1R,2S,4R)-4-{[5-({4-[(R)-amino(6-chloropyridin-2-yl)methyl]-5-chloro-2-thienyl}carbonyl)pyrimidin-4-yl]amino}-2-hydroxycyclopentyl]methyl sulfamate]	98	< 10	–	–
Cc1cccc(Cc2csc(C(=O)c3cncnc3N[C@@H]3C[C@H](COS(N)(=O)=O)[C@@H](O)C3)n2)c1 [I-351, {(1R,2S,4R)-2-hydroxy-4-[(5-{[4-(3-methylbenzyl)-1,3-thiazol-2-yl]carbonyl}pyrimidin-4-yl)amino]cyclopentyl}methyl sulfamate]	–	–	–	inhibition at 0.111 µM [1]: 93%
NS(=O)(=O)OC[C@H]1C[C@@H](Nc2ncncc2C(=O)c2cc([C@@]3(C4CC4)CCCO3)cs2)C[C@@H]1O (mixture of isomers) [I-238, [(1R,2S,4R)-4-{[5-({4-[(2S)-2-cyclopropyltetrahydrofuran-2-yl]-2-thienyl}carbonyl)pyrimidin-4-yl]amino}-2-hydroxycyclopentyl]methyl sulfamate and [(1R,2S,4R)-4-{[5-({4-[(2R)-2-cyclopropyltetrahydrofuran-2-yl]-2-thienyl}carbonyl)pyrimidin-4-yl]amino}-2-hydroxycyclopentyl]methyl sulfamate]	25	100 to 1000	–	–
NS(=O)(=O)OC[C@H]1C[C@@H](Nc2ncncc2C(=O)c2ccc(-c3ccccc3)o2)[C@H](O)[C@@H]1O [I-134, [(1R,2R,3S,4R)-2,3-dihydroxy-4-{[5-(5-phenyl-2-furoyl)pyrimidin-4-yl]amino}cyclopentyl]methyl sulfamate]	–	< 10	94	–
NS(=O)(=O)OC[C@H]1C[C@@H](Nc2ncncc2C(=O)c2cc(CCc3ccccc3)cs2)C[C@@H]1O [I-108, {(1R,2S,4R)-2-Hydroxy-4-[(5-{[4-(2-phenylethyl)-2-thenyl]carbonyl}pyrimidin-4-yl)amino]cyclopentyl}methyl sulfamate]	–	–	96	–
Cc1sc(C(=O)c2cncnc2N[C@@H]2C[C@H](COS(N)(=O)=O)[C@@H](O)C2)cc1[C@@H]1OCCc2ccc(CN(C)C)cc21 (mixture of isomers) [I-329, [(1R,2S,4R)-4-({5-[(4-{(1R)-7-[(dimethylamino)methyl]-3,4-dihydro-1H-isochromen-1-yl}-5-methyl-2-thienyl)carbonyl]pyrimidin-4-yl}amino)-2-hydroxycyclopentyl]methyl sulfamate and [(1R,2S,4R)-4-({5-[(4-{(1S)-7-[(dimethylamino)methyl]-3,4-dihydro-1H-isochromen-1-yl}-5-methyl-2-thienyl)carbonyl]pyrimidin-4-yl}amino)-2-hydroxycyclopentyl]methyl sulfamate]	–	–	–	Percent Inhibition [1]: 36%; IC50 [2]: 100 to 1000 nM
NS(=O)(=O)OC[C@H]1C[C@@H](Nc2ncncc2C(=O)c2cc([C@@H]3OCCc4ccc(F)cc43)c(Cl)s2)C[C@@H]1O (single isomer, unassigned) [I-294a, [(1R,2S,4R)-4-{[5-({5-chloro-4-[(1R)-7-fluoro-3,4-dihydro-1H-isochromen-1-yl]-2-thienyl}carbonyl)pyrimidin-4-yl]amino}-2-hydroxycyclopentyl]methyl sulfamate or [(1R,2S,4R)-4-{[5-({5-chloro-4-[(1S)-7-fluoro-3,4-dihydro-1H-isochromen-1-yl]-2-thienyl}carbonyl)pyrimidin-4-yl]amino}-2-hydroxycyclopentyl]methyl sulfamate]	–	–	–	Percent Inhibition [1]: 84%; IC50 [2]: 10 to 100 nM
Cc1cn(Cc2csc(C(=O)c3cncnc3N[C@@H]3C[C@H](COS(N)(=O)=O)[C@@H](O)C3)c2)c2ccccc12 [I-105, [(1R,2S,4R)-2-Hydroxy-4-{[5-({4-[(3-methyl-1H-indol-1-yl)methyl]-2-thienyl}carbonyl)pyrimidin-4-yl]amino}cyclopentyl]methyl sulfamate]	–	< 10	96	–
NS(=O)(=O)OC[C@H]1C[C@@H](Nc2ncncc2C(=O)c2cc(CC3=CCOC3)cs2)C[C@@H]1O [I-193, {(1R,2S,4R)-4-[(5-{[4-(2,5-dihydrofuran-3-ylmethyl)-2-thienyl]carbonyl}pyrimidin-4-yl)amino]-2-hydroxycyclopentyl}methyl sulfamate]	–	10 to 100	72	–
NS(=O)(=O)OC[C@H]1C[C@@H](Nc2ncncc2C(=O)c2cc([C@@H]3SCCc4ccc(Cl)cc43)cs2)[C@H](O)[C@@H]1O (mixture of isomers) [I-278, [(1R,2R,3S,4R)-4-{[5-({4-[(1R)-7-chloro-3,4-dihydro-1H-isothiochromen-1-yl]-2-thienyl}carbonyl)pyrimidin-4-yl]amino}-2,3-dihydroxycyclopentyl]methyl sulfamate and [(1R,2R,3S,4R)-4-{[5-({4-[(1S)-7-chloro-3,4-dihydro-1H-isothiochromen-1-yl]-2-thienyl}carbonyl)pyrimidin-4-yl]amino}-2,3-dihydroxycyclopentyl]methyl sulfamate]	98	< 10	–	–
Cc1sc(C(=O)c2cncnc2N[C@@H]2C[C@H](COS(N)(=O)=O)[C@@H](O)C2)nc1C1OCCc2ccc(Cl)cc21 (single isomer, unassigned) [I-300b, [(1R,2S,4R)-4-{[5-({4-[(1R)-7-chloro-3,4-dihydro-1H-isochromen-1-yl]-5-methyl-1,3-thiazol-2-yl}carbonyl)pyrimidin-4-yl]amino}-2-hydroxycyclopentyl]methyl sulfamate or [(1R,2S,4R)-4-{[5-({4-[(1S)-7-chloro-3,4-dihydro-1H-isochromen-1-yl]-5-methyl-1,3-thiazol-2-yl}carbonyl)pyrimidin-4-yl]amino}-2-hydroxycyclopentyl]methyl sulfamate]	–	–	–	Percent Inhibition [1]: 101%; IC50 [2]: < 10 nM
NS(=O)(=O)OC[C@H]1C[C@@H](Nc2ncncc2C(=O)c2cc([C@@H]3OCC(F)(F)c4ccccc43)cs2)C[C@@H]1O (single isomer, unassigned) [I-293a, [(1R,2S,4R)-4-{[5-({4-[(1R)-4,4-difluoro-3,4-dihydro-1H-isochromen-1-yl]-2-thienyl}carbonyl)pyrimidin-4-yl]amino}-2-hydroxycyclopentyl]methyl sulfamate or [(1R,2S,4R)-4-{[5-({4-[(1S)-4,4-difluoro-3,4-dihydro-1H-isochromen-1-yl]-2-thienyl}carbonyl)pyrimidin-4-yl]amino}-2-hydroxycyclopentyl]methyl sulfamate]	–	–	–	Percent Inhibition [1]: 57%; IC50 [2]: 10 to 100 nM
N[C@H](c1cccc(Cl)n1)c1cc(C(=O)c2cncnc2N[C@@H]2C[C@H](COS(N)(=O)=O)[C@@H](O)C2)sc1Cl (single isomer, unassigned) [I-25a, [(1R,2S,4R)-4-{[5-({4-[(S)-amino(6-chloropyridin-2-yl)methyl]-5-chloro-2-thienyl}carbonyl)pyrimidin-4-yl]amino}-2-hydroxycyclopentyl]methyl sulfamate or [(1R,2S,4R)-4-{[5-({4-[(R)-amino(6-chloropyridin-2-yl)methyl]-5-chloro-2-thienyl}carbonyl)pyrimidin-4-yl]amino}-2-hydroxycyclopentyl]methyl sulfamate]	97	< 10	–	–
NS(=O)(=O)OC[C@H]1C[C@@H](Nc2ncncc2C(=O)c2cc(Cc3ccccc3)c(Cc3ccccc3)s2)C[C@@H]1O [I-144, [(1R,2S,4R)-4-({5-[(4,5-Dibenzyl-2-thienyl)carbonyl]pyrimidin-4-yl}amino)-2-hydroxycyclopentyl]methyl sulfamate]	–	< 10	93	–
